Patent US11739337B2, “Gadusol derivative production in bacteria” (Oregon State University, priority 2019, dated 2023)
Like-named read-outs stand apart in the source and are kept apart here. Blank lines part the entries; values can stand above or below the compound they belong to.

Columns and labels:
[1] = cited from earlier work
[2] = UV absorbance maximum (λmax); format: physicochemical; details: for UV maximum: under acidic conditions, HPLC of culture broth
Procedure: Gadusporine A (see FIG. 5A), a yellow-brown solid, UV (50 mM phosphate buffer pH 7) λmax 340 nm, (50 mM acetic acid pH 3) λmax 338 nm. ^1H NMR (700 MHz, D2O) and ^13C NMR (175 MHz, D2O) see Table 3. HR-ESIMS m/z 349.1239 [M+H]^+ (calculated for C13H20N2O9, 349.1247).
Gadusporine A was produced at 20 mg/L. Gadusol was produced by pTMAO-G1 at of 29 mg/L.
Shinorine has been reported to have λmax=330 nm at pH 1.7 and λmax=334 nm at pH 7. […] Gadusporine A has a molar extinction coefficient ε=49,400, as measured in 50 mM phosphate buffer at pH 7.0, which is slightly higher than shinorine (ε=44,000), thus stronger UV absorbance activity.

Solubility in methanol = format: physicochemical
[3] = comparison value for shinorine; cited from earlier work
[4] = background statement; cited from earlier work
[5] = Molar extinction coefficient by UV absorbance at 340 nm; format: physicochemical; details: 50 mM phosphate buffer at pH 7.0, absorbance at 340 nm; in M-1 cm-1 (unit assumed)
Procedure: S. coelicolor A(3)2 pTMAO-G3 was cultured as described above at larger scales and 225 mL of S. coelicolor pTMAO-G3 culture broth was dried to ˜20 mL and passed through a C18 solid phase extraction (SPE) column. Gadusol and gadusporines were mostly un-retained, however, washing with water for 1-2 column volumes (CVs) eluted the remaining compounds. The eluent was combined and dried to ˜20 mL, which was applied directly to a 300 mL Bio-Rad AG®-1×8 (acetate form) column. After washing with 2 L of water, 500 mM acetic acid was used to elute gadusol and gadusporines. All fractions containing both gadusol and gadusporines were combined and fractions lacking gadusol but containing gadusporines were combined separately and dried. The gadusol-free fraction was further purified using the preparative HPLC as described previously to give gadusporine A (9.0 mg) (see FIG. 5A) as two different isomers. All NMR experiments were performed on a 700 MHz Bruker NMR Spectrometer with a cryo probe at the Oregon State University (OSU) NMR facility. The molar extinction coefficient of gadusporine A was determined by dissolving 0.6 mg in 50 mM phosphate buffer at pH 7.0 in a 25 mL volumetric flask then measuring UV absorbance at 340 nm.

Compound: C/C=C/NC1=C(OC)C(=NCC(=O)O)CC(O)(CO)C1 (centres unmarked) [palythene]
- λmax ([1]; background, no pH given): 360 nm

- UV λmax ([2]; 50 mM acetic acid pH 3): 338 nm
- UV λmax ([2]; 50 mM phosphate buffer pH 7): 340 nm
- UV maximum [2]: 338 nm
- solubility in methanol (Solubility in methanol): not very soluble in methanol
Compound: COC1=C(NCC(=O)O)C[C@@](O)(CO)[C@@H](O)/C1=N\[C@@H](C)C(=O)O [gadusporine B, (S)-2-(((5R,6S,E)-3-((carboxymethyl)amino)-5,6-dihydroxy-5-(hydroxymethyl)-2-methoxycyclohex-2-en-1-ylidene)amino)propanoic acid]

- solubility in methanol (Solubility in methanol): readily dissolved in methanol
Compound: COC1=C(NCC(=O)O)C[C@@](O)(CO)C/C1=N\[C@@H](CO)C(=O)O [Shinorine, shinorine]
- λmax ([1]; pH 1.7, reported): 330 nm
- λmax ([1]; pH 7, reported): 334 nm
- molar extinction coefficient ε [3]: 44,000

Compound: COC1=C(O)CC(O)(CO)C(O)C1=O (centres unmarked) [Gadusol, gadusol]
- UV absorbance maxima ([1]; pH 2.5): 268 nm
- UV absorbance maxima ([1]; pH 7.0): 296 nm
- antioxidant activity [4]: antioxidant activity

Compound: prasiolin
- λmax ([1]; background, no pH given): 324 nm

- UV λmax ([2]; 50 mM acetic acid pH 3): 338 nm
- UV λmax ([2]; 50 mM phosphate buffer pH 7): 340 nm
- λmax ([2]; pH 2.0): 338 nm
- λmax ([2]; pH 7.0): 340 nm
- UV maximum [2]: 338 nm
- molar extinction coefficient ε [5]: 49,400
Compound: COC1=C(NCC(=O)O)C[C@@](O)(CO)[C@@H](O)/C1=N\[C@@H](CO)C(=O)O [gadusporine A, (S)-2-(((5R,6S,E)-3-((carboxymethyl)amino)-5,6-dihydroxy-5-(hydroxymethyl)-2-methoxycyclohex-2-en-1-ylidene)amino)-3-hydroxypropanoic acid]

Compound: C/C=C\NC1=C(OC)C(=NCC(=O)O)CC(O)(CO)C1 (centres unmarked) [usujirene]
- λmax ([1]; background, no pH given): 357 nm
